Assay results published in patent US20120121540A1 (priority 2007, published 2012).

Assay: HCV replicon assay (luciferase reporter, ET cell line)
Format: cell-based
Details: Hepatitis C virus, HCV replicon luciferase activity in ET cells
Summary of the method: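 EC50 and, via WST-1 cytotoxicity, TC50 were fitted with a Hill-coefficient equation to % inhibition across 10 two-fold dilutions. Compounds at 0.1 nM-[…] with 0.5% DMSO were applied 24 h post-seeding to replicon-bearing ET cells (luc-ubi-neo/NS3-5B, adaptive mutations). Firefly luciferase signal was measured after 48-72 h.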

Compound `O=C(c1nc2c(C(F)(F)F)cc(-c3ccoc3)cn2c1Cl)N1CC=C(c2cnoc2)CC1` [Compound 582, (3-Chloro-6-furan-3-yl-8-trifluoromethyl-imidazo[1,2-a]pyridin-2-yl)-(4-isoxazol-4-yl-3,6-dihydro-2H-pyridin-1-yl)-methanone] has an inhibition at 10 µM of 91.2%.
`O=C(c1nc2c(C(F)(F)F)cc(-c3ccoc3)cn2c1Cl)N1CC=C(c2cc[nH]c2)CC1` [Compound 583, (3-Chloro-6-furan-3-yl-8-trifluoromethyl-imid azo[1,2-a]pyridin-2-yl)-[4-(1H-pyrrol-3-yl)-3,6-dihydro-2H-pyridin-1-yl]-methanone] showed an inhibition at 10 µM of 67.9%.
With `O=C(c1nc2c(C(F)(F)F)cc(-c3ccoc3)cn2c1Cl)N1CC=C(c2ccn[nH]2)CC1` [Compound 584, (3-Chloro-6-furan-3-yl-8-trifluoromethyl-imidazo[1,2-a]pyridin-2-yl)-[4-(2H-pyrazol-3-yl)-3,6-dihydro-2H-pyridin-1-yl]methanone] the inhibition at 10 µM was 72.5%.
Work on `CC(=O)c1ccc(C2=CCN(C(=O)c3nc4c(C(F)(F)F)cc(-c5ccoc5)cn4c3Cl)CC2)s1` [Compound 585, 1-{5-[1-(3-Chloro-6-furan-3-yl-8-trifluoromethyl-imidazo[1,2-a]pyridine-2-carbonyl)-1,2,3,6-tetrahydro-pyridin-4-yl]-thiophen-2-yl}-ethanone] yielded an inhibition at 10 µM of 93.2%.
In the case of `Cn1nccc1C1=CCN(C(=O)c2nc3c(C(F)(F)F)cc(-c4ccoc4)cn3c2Cl)CC1` [Compound 586, (3-Chloro-6-furan-3-yl-8-trifluoromethyl-imidazo[1,2-a]pyridine-2-yl)-[4-(2-methyl-2H-pyrazol-3-yl)-3,6-dihydro-2H-pyridin-1-yl]-methanone], the inhibition at 10 µM is reported as 86%.
In the case of `O=C(c1nc2c(C(F)(F)F)cc(-c3ccoc3)cn2c1Cl)N1CC=C(c2ccnc(F)c2)CC1` [Compound 587, (3-Chloro-6-furan-3-yl-8-trifluoromethyl-imidazo[1,2-a]pyridine-2-yl)-(2′-fluoro-3,6-dihydro-2H-[4,4′]bipyridinyl-1-yl)-methanone], the inhibition at 10 µM is reported as 76.9%.
For `O=C(c1nc2c(C(F)(F)F)cc(-c3ccoc3)cn2c1Cl)N1C=C(c2cscn2)CCC1` [Compound 588, (3-Chloro-6-furan-3-yl-8-trifluoromethyl-imidazo[1,2-a]pyridin-2-yl)-(5-thiazol-4-yl-3,4-dihydro-2H-pyridin-1-yl)-methanone], the inhibition at 10 µM was 84.5%.
For `O=C(c1nc2c(C(F)(F)F)cc(-c3ccoc3)cn2c1Cl)N1CCC=C(c2cscn2)C1` [Compound 589, (3-Chloro-6-furan-3-yl-8-trifluoromethyl-imidazo[1,2-a]pyridin-2-yl)-(5-thiazol-4-yl-3,6-dihydro-2H-pyridin-1-yl)-methanone], the inhibition at 10 µM was 76%.
`O=C(c1nc2c(C(F)(F)F)cc(-c3ccoc3)cn2c1Cl)N1C=C(c2ccccc2F)CCC1` [Compound 590, (3-Chloro-6-furan-3-yl-8-trifluoromethyl-imidazo[1,2-a]pyridine-2-yl)-[5-(2-fluoro-phenyl)-3,4-dihydro-2H-pyridin-1-yl]-methanone] gave an inhibition at 10 µM of 93.9%.
Compound `O=C(c1nc2c(C(F)(F)F)cc(-c3ccoc3)cn2c1Cl)N1CCC=C(c2ccccc2F)C1` [Compound 591, (3-Chloro-6-furan-3-yl-8-trifluoromethyl-imidazo[1,2-a]pyridine-2-yl)-[5-(2-fluoro-phenyl)-3,6-dihydro-2H-pyridin-1-yl]-methanone] has an inhibition at 10 µM of 96.9%.
In the case of `O=C(c1nc2c(C(F)(F)F)cc(-c3cn[nH]c3)cn2c1Cl)N1CC=C(c2ncccc2F)C1` [Compound 592], the inhibition at 10 µM is reported as 97.1%.
`O=C(c1nc2c(C(F)(F)F)cc(-c3ccoc3)cn2c1Cl)N1CCC(Oc2ccccc2)C1` (centres unmarked) [Compound 593, (3-Chloro-6-furan-3-yl-8-trifluoromethyl-imidazo[1,2-a]pyridin-2-yl)-(3-phenoxy-pyrrolidin-1-yl)-methanone] gave an inhibition at 10 µM of 89.5%.
Compound `O=C(c1nc2c(C(F)(F)F)cc(-c3ccoc3)cn2c1Cl)N1CC=C(c2ccccc2)CC1` [Compound 594, (3-Chloro-6-furan-3-yl-8-trifluoromethyl-imidazo[1,2-a]pyridin-2-yl)-(4-phenyl-3,6-dihydro-2H-pyridin-1-yl)-methanone] has an inhibition at 10 µM of 88.5%.
In the case of `O=C(c1nc2c(C(F)(F)F)cc(-c3ccoc3)cn2c1Cl)N1CC=C(c2ccc(F)cc2)CC1` [Compound 595, (3-Chloro-6-furan-3-yl-8-trifluoromethyl-imidazo[1,2-a]pyridin-2-yl)-[4-(4-fluoro-phenyl)-3,6-dihydro-2H-pyridin-1-yl]-methanone], the inhibition at 10 µM is reported as 77.2%.
With `O=C(c1nc2c(C(F)(F)F)cc(-c3ccoc3)cn2c1Cl)N1CCN(c2ccc(F)cc2F)CC1` [Compound 596, (3-Chloro-6-furan-3-yl-8-trifluoromethyl-imidazo[1,2-a]pyridin-2-yl)-[4-(2,4-difluoro-phenyl)-piperazin-1-yl]-methanone] the inhibition at 10 µM was 75.6%.
Compound `O=C(c1nc2c(C(F)(F)F)cc(-c3ccoc3)cn2c1Cl)N1CCN(c2ncccn2)CC1` [Compound 597, (3-Chloro-6-furan-3-yl-8-trifluoromethyl-imidazo[1,2-a]pyridin-2-yl)-(4-pyrimidin-2-yl-piperazin-1-yl)-methanone] has an inhibition at 10 µM of 38.7%.
`O=C(c1nc2c(C(F)(F)F)cc(-c3ccoc3)cn2c1Cl)N1CCC(c2cccs2)CC1` [Compound 598, [3-chloro-6-(furan-3-yl)-8-(trifluoromethyl)imidazo[1,2-a]pyridin-2-yl][4-(thiophen-2-yl)piperidin-1-yl]methanone] showed an inhibition at 10 µM of 95.9%.
Compound `O=C(c1nc2c(C(F)(F)F)cc(-c3ccoc3)cn2c1Cl)N1CCC(Nc2ccccc2)C1` (centres unmarked) [Compound 599, (3-Chloro-6-furan-3-yl-8-trifluoromethyl-imidazo[1,2-a]pyridin-2-yl)-(3-phenylamino-pyrrolidin-1-yl)-methanone] has an inhibition at 10 µM of 91.1%.
For `CC(=O)N(c1ccccc1)C1CCN(C(=O)c2nc3c(C(F)(F)F)cc(-c4ccoc4)cn3c2Cl)C1` (centres unmarked) [Compound 600, N-[1-(3-Chloro-6-furan-3-yl-8-trifluoromethyl-imidazo[1,2-a]pyridine-2-carbonyl)-pyrrolidin-3-yl]-N-phenyl-acetamide], the inhibition at 10 µM was 76%.
Work on `N#CC1(c2ccccc2)CCN(C(=O)c2nc3c(C(F)(F)F)cc(-c4ccoc4)cn3c2Cl)CC1` [Compound 601, 1-(3-Chloro-6-furan-3-yl-8-trifluoromethyl-imidazo[1,2-a]pyridine-2-carbonyl)-4-phenyl-piperidine-4-carbonitrile] yielded an inhibition at 10 µM of 98.3%.
`O=C(NC(c1ccccc1)c1cccs1)c1nc2c(C(F)(F)F)cc(-c3ccoc3)cn2c1Cl` (centres unmarked) [Compound 602, 3-Chloro-6-furan-3-yl-8-trifluoromethyl-imidazo[1,2-a]pyridine-2-carboxylic Acid (phenyl-thiophen-2-yl-methyl)-amide] gave an inhibition at 10 µM of 90.5%.
`O=C(Cc1nc2c(C(F)(F)F)cc(-c3ccoc3)cn2c1Cl)NCc1cccs1` [Compound 603, 2-[3-Chloro-6-(furan-3-yl)-8-(trifluoromethyl)imidazo[1,2-a]pyridin-2-yl]-N-(thiophen-2-ylmethyl)acetamide] gave an inhibition at 10 µM of 65.8%.
In the case of `O=C(Cc1nc2c(C(F)(F)F)cc(-c3ccoc3)cn2c1Cl)N1CCC(c2cccc(F)c2)C1` (centres unmarked) [Compound 604, 2-[3-chloro-6-(furan-3-yl)-8-(trifluoromethyl)imidazo [1,2-a]pyridin-2-yl]-1-[3-(3-fluorophenyl)pyrrolidin-1-yl]ethanone], the inhibition at 10 µM is reported as 74.1%.
